Laboratory results reported in ChEMBL document CHEMBL1143510, “Synthesis and in vitro antitumor activity of 4(3H)-quinazolinone derivatives with dithiocarbamate side chains” (Bioorg Med Chem Lett, 2005).

What follows are compounds tested on K562 (assay: In vitro cytotoxic concentration measured against human myelogenous leukemia K562 cells).
Format: functional, cell-based

`CCOC(=O)C1(c2ccccc2)CCN(C(=S)SCc2ccc3nc(C)nc(O)c3c2)CC1` and `Cc1nc(O)c2cc(CSC(=S)N3CCN(Cc4ccccc4)CC3)ccc2n1` are within 1.5-fold of each other in IC50: 8.7 µM for the first, 7.4 µM for the second.

First: Cc1nc(O)c2cc(CSC(=S)N3CCc4ccccc4C3)ccc2n1
Second: Cc1nc(O)c2cc(CSC(=S)N3CCN(c4ccc(F)cc4)CC3)ccc2n1
The IC50 of the first is 6.6-fold higher: 3.3 µM for the first, 0.5 µM for the second.

Going from `Cc1nc(O)c2cc(CSC(=S)N(C3CCCCC3)C3CCCCC3)ccc2n1` to `Cc1nc(O)c2cc(CS/C(S)=N/C3CCCCC3)ccc2n1`, the IC50 rises from 7.6 µM to 31 µM (4.1-fold).

First: CSC(=S)NCc1c[nH]c2ccccc12 [BRASSININ]
Second: Cc1nc(O)c2cc(CS/C(S)=N/Cc3ccccc3)ccc2n1
The IC50 of the first is 32-fold higher: 128 µM for the first, 4 µM for the second.

First: Cc1nc(O)c2cc(CS/C(S)=N/C34CC5CC(CC(C5)C3)C4)ccc2n1
Second: Cc1nc(O)c2cc(CSC(=S)N3CCCCC3)ccc2n1
The IC50 of the first is 2.7-fold higher: 30.6 µM for the first, 11.3 µM for the second.

Compared with `Cc1nc(O)c2cc(CSC(=S)N3CCOCC3)ccc2n1`, `Cc1nc(O)c2cc(CSC(=S)N3CCN(C)CC3)ccc2n1` is 1.5-fold higher in IC50: 7.2 µM for the first, 10.8 µM for the second.

Going from `CN(Cc1cnc2nc(N)nc(N)c2n1)c1ccc(C(=O)N[C@@H](CCC(=O)O)C(=O)O)cc1` [METHOTREXATE] to `CCOC(=O)C1CSCN1C(=S)SCc1ccc2nc(C)nc(O)c2c1` (centres undefined), the IC50 falls from 419 µM to 11 µM (38-fold). The second is the more potent here.

Compared with `CCN(CC)C(=S)SCc1ccc2nc(C)nc(O)c2c1`, `Cc1nc(O)c2cc(CS/C(S)=N/CCCN(C)C)ccc2n1` is 5.8-fold higher in IC50: 4.4 µM for the first, 25.6 µM for the second. The first is the more potent here.

`Cc1nc(O)c2cc(CSC(=S)N3CCN(C(c4ccc(F)cc4)c4ccc(F)cc4)CC3)ccc2n1` and `Cc1nc(O)c2cc(CSC(=S)N3CC(C)OC(C)C3)ccc2n1` (centres undefined) are within 1.5-fold of each other in IC50: 4.3 µM for the first, 3.7 µM for the second.

Work on `Cc1nc(O)c2cc(CS/C(S)=N/Cc3ccco3)ccc2n1` yielded an IC50 of 2.1 µM.
